What was measured:
[1] = tested on: LPS-induced macrophage activation; assay: PGE2-mediated protection against LPS-induced macrophage activation; assay type: cell-based
EPRAP/p105 interaction = target: T1, EPRAP/p105 interaction (Homo sapiens, UniProt P19838+Q9BSK4); assay: Co-IP of HA-tagged EPRAP (FEM1A) and p105; assay type: cell-based; conditions: up to 5 μM; cells overexpressing HA-tagged EPRAP (FEM1A) and p105
T1 construct: Addgene (p105 plasmid) #HG21487-NY; plasmid #23288
T1 sequence (Q9BSK4 1-669): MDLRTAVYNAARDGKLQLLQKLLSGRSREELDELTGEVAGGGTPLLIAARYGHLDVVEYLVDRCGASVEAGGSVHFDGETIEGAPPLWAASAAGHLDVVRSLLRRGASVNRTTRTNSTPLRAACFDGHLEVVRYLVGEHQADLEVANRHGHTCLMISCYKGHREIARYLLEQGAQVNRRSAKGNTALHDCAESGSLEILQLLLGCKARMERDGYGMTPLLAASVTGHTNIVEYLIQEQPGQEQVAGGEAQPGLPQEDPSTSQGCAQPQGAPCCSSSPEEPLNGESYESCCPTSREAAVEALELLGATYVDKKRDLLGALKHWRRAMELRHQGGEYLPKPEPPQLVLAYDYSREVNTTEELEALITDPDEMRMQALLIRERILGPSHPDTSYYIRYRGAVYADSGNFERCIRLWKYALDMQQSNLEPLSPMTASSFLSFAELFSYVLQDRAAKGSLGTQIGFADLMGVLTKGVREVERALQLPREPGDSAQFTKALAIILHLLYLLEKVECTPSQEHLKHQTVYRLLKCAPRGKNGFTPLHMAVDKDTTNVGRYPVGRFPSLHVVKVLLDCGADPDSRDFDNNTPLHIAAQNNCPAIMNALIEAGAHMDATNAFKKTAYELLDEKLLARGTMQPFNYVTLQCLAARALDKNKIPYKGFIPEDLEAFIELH
T1 sequence (P19838 1-968): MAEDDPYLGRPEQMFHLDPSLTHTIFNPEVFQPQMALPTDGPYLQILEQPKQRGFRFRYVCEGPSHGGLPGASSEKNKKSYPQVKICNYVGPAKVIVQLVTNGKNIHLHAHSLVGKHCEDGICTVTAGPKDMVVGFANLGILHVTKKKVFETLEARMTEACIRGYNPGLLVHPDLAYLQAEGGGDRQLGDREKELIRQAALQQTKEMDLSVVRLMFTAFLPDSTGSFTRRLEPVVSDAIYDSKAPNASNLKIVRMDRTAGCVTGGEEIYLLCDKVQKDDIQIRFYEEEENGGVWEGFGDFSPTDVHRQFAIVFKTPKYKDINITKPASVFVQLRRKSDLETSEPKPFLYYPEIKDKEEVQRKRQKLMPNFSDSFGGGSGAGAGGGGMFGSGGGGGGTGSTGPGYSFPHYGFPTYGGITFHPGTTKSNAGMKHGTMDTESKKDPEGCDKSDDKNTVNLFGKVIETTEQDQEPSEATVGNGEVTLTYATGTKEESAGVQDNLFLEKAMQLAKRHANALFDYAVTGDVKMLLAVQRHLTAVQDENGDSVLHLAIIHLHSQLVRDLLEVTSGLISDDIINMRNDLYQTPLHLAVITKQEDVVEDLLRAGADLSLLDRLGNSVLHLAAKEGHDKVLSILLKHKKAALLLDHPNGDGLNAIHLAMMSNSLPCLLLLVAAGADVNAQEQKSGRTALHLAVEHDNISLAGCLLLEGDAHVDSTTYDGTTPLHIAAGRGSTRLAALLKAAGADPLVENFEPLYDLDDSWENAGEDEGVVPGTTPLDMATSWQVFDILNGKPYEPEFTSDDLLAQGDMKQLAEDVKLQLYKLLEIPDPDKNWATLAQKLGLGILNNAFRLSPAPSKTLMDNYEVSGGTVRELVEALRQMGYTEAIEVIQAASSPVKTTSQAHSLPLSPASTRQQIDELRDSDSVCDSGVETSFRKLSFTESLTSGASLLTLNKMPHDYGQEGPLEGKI
Excerpt: Nuclear/cytoplasm protein extraction, co-Immunoprecipitation and immunoblotting NE-PER™ Nuclear and Cytoplasmic Extraction Reagents (#78835, ThermoFisher) were used for nuclear and cytoplasmic protein extraction. For Co-IP, cells were lysed using Cell Lysis Buffer (#9803, CST) supplemented with PMSF (#8553, CST), immunoprecipitated using Protein G Magnetic Beads (#7024, CST) and antibodies against HA (#AE008, ABclonal) or p50/p105(#13586, CST) following the manufacture's protocol. For immunoblot, protein extracts were resolved in SDS-PAGE gels and transferred to nitrocellulose membranes. Membranes were blocked by 5% BSA and incubated with the primary antibody at 4° C. overnight followed by incubation with fluorescence conjugated secondary antibody for 1 h at room temperature. Band intensity was collected with the Odyssey® CLx Imaging System and quantified using Image Studio™ Lite.

[2] = tested on: oxLDL-induced Il1b and Mmp9 expression in BMDMs; assay: Real-time PCR of oxLDL-induced pro-inflammatory genes in BMDMs; assay type: cell-based, mouse; conditions: BMDMs, vs control
Experimental: FIG. 3. NO2—OA prevents oxLDL-induced NFκB activation and pro-inflammatory cytokine production. Primary BMDMs were pretreated with vehicle, OA (2.5 μM) or NO2—OA (2.5 μM) for 1 h, followed by treatment of oxLDL (50 to 100 μg/ml) for the indicated times. (A, B) Nuclear (A) and cytoplasmic protein (B) fractions were isolated 1 h after oxLDL treatment and subjected to western blot with antibodies against p65, lamin a/c (nuclear marker) and GAPDH (cytosolic marker). Representative western blot images of three independent experiments are shown. (C) Quantification of the p65 nuclear to cytoplasmic ratio by image studio (normalized by the internal control, n=3). (D-F) Following 8 h of oxLDL treatment, levels of IL6, MCP1 and TNFα in the cell medium were measured by ELISA (n=4). (G) Real-time PCR quantification of gene expression levels of IL1b and Mmp9 in total mRNA extracted from the BMDMs. (C) Ordinary one-way ANOVA followed by Tukey's test was performed. As of (D-F), the basal level contains several non-detectable values, so ordinary one-way ANOVA followed by correction of FDR were performed for the oxLDL-treated groups only. Ordinary one-way ANOVA followed by Tukey's test was performed for (G). Data presented as mean±SEM. A p<0.05 for both the main test and post hoc test was considered statistically significant.
Mice suprarenal aortas were collected after the measurement of their diameter. Human aortic aneurysm samples were obtained from the Department of Cardiac Surgery at the University of Michigan. Samples from humans and mice were snap-frozen in liquid nitrogen for later processing. RNA from tissue was extracted using TRIzol (#15596018, Invitrogen). RNA from cells was isolated with the RNeasy Mini Kit (#74106, QIAGEN). SuperScript™ III First-Strand Synthesis System (#18080051, Invitrogen) was used to reverse-transcribe mRNA into cDNA. Gene expression was quantified in triplicates by quantitative real-time PCR (qPCR) using IQ SYBR Green Supermix (#1708882, Bio-Rad) with the indicated gene primers.

CCCCCCCCC(=CCCCCCCCC(=O)O)[N+](=O)[O-] [NO2—OA, 10-nitro-octadec-9-enoic acid]
PGE2-mediated protective effect against LPS-induced macrophage activation (expression of Tnf, Il6, Ccl4) [1]: does not suppress | effect on the EPRAP/p105 interaction (EPRAP/p105 interaction): no significant effect | oxLDL-induced expression of Il1b [2]: significantly decreased | oxLDL-induced expression of Mmp9 [2]: significantly decreased

From US12728111B2, “Electrophilic compounds and electrophilic prodrugs for treating aneurysm” (University of Pittsburgh—Of the Commonwealth System of …, priority 2020, dated 2026)
